{
  "source": "patent US9849186B2",
  "about": "“Triblock copolymer and use therefor” (priority 2012, dated 2017)",
  "key": {"[1]": {"test": "Local retention of injectable gel, imaging by L-band electron spin resonance", "settings": "70 μl s.c. into hind paw", "protocol": "Three mice were used in each group. 70 μl of a solution of the nitroxide radical-containing polyion complex micelles used in Test 1 (PMNT-b-PEG-b-PMNT to PAA molar ratio r=1:1 (RIG). pH 6, 60 mg/ml) was injected subcutaneously into the left hind paws of three mice. […] Local retention of nitroxide radicals in the mouse paws was imaged by L-band electron spin resonance (ESR) using mice immediately after administration."}, "[2]": {"system": "myeloperoxidase (MPO) activity", "test": "Carrageenan-induced arthritis model: MPO activity as marker of neutrophil infiltration", "format": "in vivo, mice", "settings": "50 μl s.c. right hind paw; 5% carrageenan 18 hours later; measured 6 hours after carrageenan", "protocol": "Five mice (n=5) were used in each of 9 groups (Control, RIG, nRIG, Saline@Carr, RIG@Carr, nRIG@Carr, 4-amino-TEMPO@Carr, RNP^N@Carr, nRIG+4-amino-TEMPO@Carr).\n50 μl each of nitroxide radical-containing polyion complex micelles for forming an RIG gel (RIG; molar ratio r=1:1, pH 6, 60 mg/ml), nitroxide radical-free polyion complex micelles for forming an nRIG gel (nRIG; molar ratio r=1:1, pH 6, 60 mg/ml), saline, a low-molecular-weight nitroxide radical compound solution (4-aminoTEMPO; 5.45 mg/ml), a nitroxide radical-containing polymer micelle solution (RNP^N; 60 mg/ml), and a solution of low-molecular-weight 4-aminoTEMPO physically mixed with nitroxide radical-free polyion complex micelles (n-RIG+4-aminoTEMPO; molar ratio r=1:1, pH 6, 60 mg/ml) was then injected subcutaneously into the right hind paws of mice. 18 hours later, 50 μl of 5% carrageenan buffer was injected subcutaneously into the right hind paws of the mice in the Saline@Carr, RIG@Carr, nRIG@Carr, 4-amino-TEMPO@Carr, RNP^N@Carr, and nRIG+4-aminoTEMPO@Carr groups (n=5). Nothing was administered to the Control group (n=5). […] The collected tissue of the mouse right hind paws was then homogenized, and the amount of inflammatory cytokines (TNF-α and IL-1β) and myeloperoxidase (MPO) activity as a marker of neutrophil infiltration were measured with an ELISA kit in the supernatant collected by centrifugation."}},
  "data": [
    {"smiles": "CC1(C)CC(N)CC(C)(C)N1[O]", "note": "[4-aminoTEMPO, 4-amino-TEMPO]", "values": [
      {"measurement": "time after administration at which ESR signal disappeared from mouse paws", "setting": "[1]", "value": "≤ 30", "unit": "min"},
      {"measurement": "suppression of MPO activity caused by carrageenan", "setting": "[2]", "value": "not significantly suppressed"}
    ]}
  ]
}
